Reference: US20240336588A1, “COMPOSITIONS AND METHODS FOR ANTIOXIDANT AND ANTI-INFLAMMATORY THERAPEUTICS” (AVANTI BIOSCIENCES INC., priority 2021, published 2024)
Like-named read-outs stand apart in the source and are kept apart here.

Columns and labels:
[1] = molecular target: DYRK2 (Homo sapiens (Human), UniProt Q92630); settings: literature value; cited from earlier work
[2] = molecular target: DYRK1A (HT-497, 6×His tagged rat truncated DYRK1A isoform X1 residues 1-497) (Rattus norvegicus (Rat), UniProt Q63470); assay: DYRK1A ELISA assay (HT-PRD phosphorylation); type: biochemical; settings: 100 µM ATP, 5 ng HT-497, 30 min at 30° C.
Protocol: Compounds of Table 1, above, were examined in vitro for activity against DYRK1A, DYRK1B, DYRK2 via an ELISA assay.
(§1) DYRK1A assay. […] After blocking, wells were washed extensively with dilution buffer before subjecting to phosphorylation. […] At the end point, wells were washed with ˜350 μl dilution buffer three times to terminate the reaction. […] Each point was run in quadruplicate with DMSO present in all assays at 0.2% final concentration. […] HT-PRD phosphorylation was subsequently determined by the sandwich antibody staining protocol, first with 100 μl mouse mAb 3D3 specific for detecting DYRK1A-phosphorylated PRD (60 min at room temperature) then with 100 μl alkaline phosphatase (AP)-linked anti-mouse secondary antibody (60 min at room temperature), followed by colorimetric reaction with 100 μl PNPP solution (PNPP substrate tablet, Thermo Fisher). […] The readings were then recorded for subsequent IC50 calculation. The DYRK1A assay protocol can also support DYRK1B and DYRK2 phosphorylation reactions in the enzyme concentration-dependent manner; therefore, the method was adapted for measuring the activity of candidate compounds against DYRK1B and DYRK2. For DYRK2, the reactions were performed as described above with 6 ng HT-DYRK2 (6×His tagged full-length human DYRK2 isoform 1). For DYRK1B, the assays were also similarly conducted but with 70 ng GST-DYRK1B (glutathione S-transferase tagged full length human DYRK1B isoform p65) and an extended kinase reaction time of 60 min.
Dilution factors for both mAb 3D3 and secondary antibody were pre-determined for each batch of antibody to ensure that neither antibody was limiting in the assay.
(§2) Data transformation, calculation, plotting, curve fitting, and IC 50 calculation were performed in KaleidaGraph (http://www.synergy.com/wordpress_650164087; Mac version 4.1). Data was corrected for background (readings from wells with only PNPP) before subsequent manipulations. […] The resulting residual activity was then plotted against its corresponding inhibitor concentrations in semi-log graph and the plot was fit to the sigmoidal equation, y=a+(b−a)/(1+(x/c)^d), for IC50 calculation.

[3] = molecular target: DYRK1B (GST tagged full length human DYRK1B isoform p65) (Homo sapiens (Human), UniProt Q9Y463); assay: DYRK1B ELISA assay; type: biochemical; settings: 70 ng GST-DYRK1B, kinase reaction time 60 min
Protocol: as §1, §2
Compounds of Table 1, above, were examined in vitro for activity against DYRK1B, via an ELISA assay.

[4] = test system: MOG35-55-induced chronic progressive Experimental Autoimmune Encephalomyelitis (EAE); assay: MOG35-55-induced murine model of chronic progressive EAE; type: in vivo, mice
Description: Compound 40 of Table 1 was examined for application in neurodegenerative disorders using a MOG35-55-induced murine model of chronic progressive Experimental Autoimmune Encephalomyelitis (EAE), an inflammation model predictive for multiple sclerosis (MS).
Without being bound by theory, the present inventors note that compound 40 could have a peripheral immunomodulation effect and an overall neuroprotective effect, which could have advantageous implications for the treatment of neurodegenerative disorders like Alzheimer's disease and Multiple Sclerosis.

[5] = molecular target: COX1 (Homo sapiens (Human), UniProt P23219); assay: Eurofins safetyscreen87 panel; type: biochemical
[6] = molecular target: COX2 (Homo sapiens (Human), UniProt P35354); assay: Eurofins safetyscreen87 panel; type: biochemical
[7] = molecular target: PDE3A (Homo sapiens (Human), UniProt Q14432); assay: Eurofins safetyscreen87 panel; type: biochemical
[8] = molecular target: Potassium channel hERG (Homo sapiens (Human), UniProt Q12809); assay: Eurofins safetyscreen87 panel; type: binding; settings: c=10 μM
[9] = test system: 87 different targets; assay: Eurofins safetyscreen87 panel (whole panel)
[10] = test system: 12 transporter proteins including BCRP and PgP; assay: Transporter substrate test (Eurofins panels); type: in vitro ADME
[11] = test system: 8 major CYP enzymes; assay: CYP inhibition in human liver microsomes; type: in vitro ADME; settings: c=10 μM
Protocol: Compound 68 was also tested for its inhibitor activity against the 8 major CYP enzymes in human liver microsomes.

[12] = test system: Salmonella typhimurium (TA98, TA100, TA97a, and TA1535); assay: mini-Ames assay; settings: 5 concentrations up to 100 μM, absence or presence of rat liver S9
Protocol: The compound dissolved in DMSO was evaluated at 5 concentrations up to […] in the absence or presence of metabolic activation (rat liver S9).

[13] = test system: lipopolysaccharide (LPS)-induced TNF-α model; assay: Lipopolysaccharide (LPS)-induced TNF-α model; type: in vivo, C57BL/6 mice; settings: intranasally 3, 10, 30 mg/kg and orally 30 mg/kg, 5 days
Protocol: 12-week-old male C57BL/6 mice were used.
On day 5, one hour after LPS treatment, all animals were euthanized via CO2. The plasma, hippocampus and cortex were collected and immediately stored at liquid nitrogen and transferred to −80° C. Tissues were used for ELISA and Western Blot analysis to determine levels of TNF-α and pTau.

[14] = mouse, in vivo
[15] = male, C57BL/6, mouse, in vivo
[16] = in vivo; settings: male, C57BL/6, mouse
[17] = in vivo; settings: male, C57BL/6, mouse; remark: listed apart in the source
[18] = twice daily intranasal administration, 15 mg/kg
[19] = inhaled or intranasal, 30 mg/kg
[20] = inhaled or intranasal, 10 mg/kg

Chain of DYRK1B (GST tagged full length human DYRK1B isoform p65) (Q9Y463 other isoform, or with tags, fused parts or gaps): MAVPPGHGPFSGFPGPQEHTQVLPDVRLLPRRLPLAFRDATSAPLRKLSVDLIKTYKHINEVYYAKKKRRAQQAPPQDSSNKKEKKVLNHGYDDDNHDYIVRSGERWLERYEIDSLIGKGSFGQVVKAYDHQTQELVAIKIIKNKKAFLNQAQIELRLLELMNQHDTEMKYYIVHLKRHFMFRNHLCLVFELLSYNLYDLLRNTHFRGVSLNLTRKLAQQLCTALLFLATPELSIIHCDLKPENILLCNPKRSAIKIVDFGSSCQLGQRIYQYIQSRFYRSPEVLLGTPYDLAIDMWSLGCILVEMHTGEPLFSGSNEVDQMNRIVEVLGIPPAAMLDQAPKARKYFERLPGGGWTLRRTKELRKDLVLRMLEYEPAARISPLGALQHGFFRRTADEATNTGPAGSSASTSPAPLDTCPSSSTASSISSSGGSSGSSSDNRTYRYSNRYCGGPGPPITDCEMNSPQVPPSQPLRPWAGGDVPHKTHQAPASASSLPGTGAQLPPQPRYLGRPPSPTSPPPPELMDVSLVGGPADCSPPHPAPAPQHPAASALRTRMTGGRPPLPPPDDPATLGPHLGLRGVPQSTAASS
Chain of PDE3A (Q14432 whole entry): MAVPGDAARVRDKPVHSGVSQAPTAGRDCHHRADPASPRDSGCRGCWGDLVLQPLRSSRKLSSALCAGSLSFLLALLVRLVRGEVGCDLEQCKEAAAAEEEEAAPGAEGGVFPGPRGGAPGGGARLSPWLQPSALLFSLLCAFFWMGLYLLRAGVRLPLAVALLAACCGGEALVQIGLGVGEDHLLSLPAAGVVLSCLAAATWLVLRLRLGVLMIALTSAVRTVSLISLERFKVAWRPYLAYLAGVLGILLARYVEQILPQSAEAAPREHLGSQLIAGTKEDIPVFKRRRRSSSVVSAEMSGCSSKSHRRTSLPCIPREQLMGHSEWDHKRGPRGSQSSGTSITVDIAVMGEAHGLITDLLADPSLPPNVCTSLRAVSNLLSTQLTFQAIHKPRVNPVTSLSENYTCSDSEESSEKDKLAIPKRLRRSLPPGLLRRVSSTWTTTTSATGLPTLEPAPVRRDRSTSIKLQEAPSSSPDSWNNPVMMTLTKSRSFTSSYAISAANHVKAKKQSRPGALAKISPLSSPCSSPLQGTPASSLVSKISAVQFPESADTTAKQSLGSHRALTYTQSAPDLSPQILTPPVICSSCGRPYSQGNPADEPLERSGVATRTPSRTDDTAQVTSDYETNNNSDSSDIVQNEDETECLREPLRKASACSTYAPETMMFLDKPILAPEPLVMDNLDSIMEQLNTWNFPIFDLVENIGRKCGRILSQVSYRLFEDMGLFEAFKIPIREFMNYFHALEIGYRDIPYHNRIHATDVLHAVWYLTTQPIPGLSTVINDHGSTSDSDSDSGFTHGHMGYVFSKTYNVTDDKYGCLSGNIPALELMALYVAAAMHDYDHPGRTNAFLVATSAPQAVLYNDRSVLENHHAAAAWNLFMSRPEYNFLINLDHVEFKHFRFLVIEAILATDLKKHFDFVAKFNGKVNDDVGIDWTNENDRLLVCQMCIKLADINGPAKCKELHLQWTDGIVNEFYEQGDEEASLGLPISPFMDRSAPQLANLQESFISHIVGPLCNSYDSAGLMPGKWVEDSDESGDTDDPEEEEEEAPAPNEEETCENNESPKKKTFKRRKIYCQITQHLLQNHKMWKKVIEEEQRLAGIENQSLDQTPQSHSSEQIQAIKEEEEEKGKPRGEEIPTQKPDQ
Chain of Potassium channel hERG (Q12809 whole entry): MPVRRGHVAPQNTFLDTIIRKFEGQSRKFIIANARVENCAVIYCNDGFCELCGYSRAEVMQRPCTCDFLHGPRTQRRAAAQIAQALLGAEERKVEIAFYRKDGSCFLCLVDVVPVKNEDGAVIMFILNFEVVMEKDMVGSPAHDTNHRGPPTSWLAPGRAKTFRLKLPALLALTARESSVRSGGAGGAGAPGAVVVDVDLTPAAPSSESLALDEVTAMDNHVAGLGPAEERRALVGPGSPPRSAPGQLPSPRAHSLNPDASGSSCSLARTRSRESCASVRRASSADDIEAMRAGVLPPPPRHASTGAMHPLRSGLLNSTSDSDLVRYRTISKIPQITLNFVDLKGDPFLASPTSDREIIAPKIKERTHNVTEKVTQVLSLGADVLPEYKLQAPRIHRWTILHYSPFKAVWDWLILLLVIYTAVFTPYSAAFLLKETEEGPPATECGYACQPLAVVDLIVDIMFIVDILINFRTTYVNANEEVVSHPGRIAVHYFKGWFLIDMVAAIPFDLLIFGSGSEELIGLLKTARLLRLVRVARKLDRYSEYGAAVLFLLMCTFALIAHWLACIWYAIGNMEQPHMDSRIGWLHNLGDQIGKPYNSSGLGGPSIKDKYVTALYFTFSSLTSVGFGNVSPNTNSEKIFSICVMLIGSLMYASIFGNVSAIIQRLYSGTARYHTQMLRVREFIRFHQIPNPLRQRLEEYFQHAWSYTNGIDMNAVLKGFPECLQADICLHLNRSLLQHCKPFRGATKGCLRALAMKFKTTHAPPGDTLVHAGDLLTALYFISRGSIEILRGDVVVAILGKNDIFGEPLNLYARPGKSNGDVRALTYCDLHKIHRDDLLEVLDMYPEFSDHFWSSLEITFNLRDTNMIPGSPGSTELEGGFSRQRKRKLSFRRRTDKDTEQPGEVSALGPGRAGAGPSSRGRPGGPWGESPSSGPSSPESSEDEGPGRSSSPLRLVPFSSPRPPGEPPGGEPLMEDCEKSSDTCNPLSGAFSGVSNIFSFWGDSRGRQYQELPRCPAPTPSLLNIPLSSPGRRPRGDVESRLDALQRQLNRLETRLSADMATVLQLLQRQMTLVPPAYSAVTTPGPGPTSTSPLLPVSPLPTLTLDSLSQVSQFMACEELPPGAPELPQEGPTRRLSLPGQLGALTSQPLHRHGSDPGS
Chain of COX2 (P35354 18-604): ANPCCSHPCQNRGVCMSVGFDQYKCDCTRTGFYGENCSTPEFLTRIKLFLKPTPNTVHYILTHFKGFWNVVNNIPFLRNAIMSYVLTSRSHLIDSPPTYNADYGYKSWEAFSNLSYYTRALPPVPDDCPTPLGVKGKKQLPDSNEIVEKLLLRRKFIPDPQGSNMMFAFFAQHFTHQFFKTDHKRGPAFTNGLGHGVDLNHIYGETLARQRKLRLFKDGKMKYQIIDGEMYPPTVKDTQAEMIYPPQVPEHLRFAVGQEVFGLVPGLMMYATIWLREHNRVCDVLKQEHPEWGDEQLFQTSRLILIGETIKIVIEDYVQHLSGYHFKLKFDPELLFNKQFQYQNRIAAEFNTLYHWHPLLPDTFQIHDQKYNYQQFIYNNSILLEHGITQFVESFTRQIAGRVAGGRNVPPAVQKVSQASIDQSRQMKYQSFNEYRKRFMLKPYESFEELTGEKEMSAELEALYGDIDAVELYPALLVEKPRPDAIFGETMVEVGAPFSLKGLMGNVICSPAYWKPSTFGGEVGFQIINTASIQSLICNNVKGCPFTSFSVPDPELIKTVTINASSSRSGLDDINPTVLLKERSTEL
Chain of DYRK2 (Q92630 whole entry, species assumed, the tested form may be a part, canonical isoform): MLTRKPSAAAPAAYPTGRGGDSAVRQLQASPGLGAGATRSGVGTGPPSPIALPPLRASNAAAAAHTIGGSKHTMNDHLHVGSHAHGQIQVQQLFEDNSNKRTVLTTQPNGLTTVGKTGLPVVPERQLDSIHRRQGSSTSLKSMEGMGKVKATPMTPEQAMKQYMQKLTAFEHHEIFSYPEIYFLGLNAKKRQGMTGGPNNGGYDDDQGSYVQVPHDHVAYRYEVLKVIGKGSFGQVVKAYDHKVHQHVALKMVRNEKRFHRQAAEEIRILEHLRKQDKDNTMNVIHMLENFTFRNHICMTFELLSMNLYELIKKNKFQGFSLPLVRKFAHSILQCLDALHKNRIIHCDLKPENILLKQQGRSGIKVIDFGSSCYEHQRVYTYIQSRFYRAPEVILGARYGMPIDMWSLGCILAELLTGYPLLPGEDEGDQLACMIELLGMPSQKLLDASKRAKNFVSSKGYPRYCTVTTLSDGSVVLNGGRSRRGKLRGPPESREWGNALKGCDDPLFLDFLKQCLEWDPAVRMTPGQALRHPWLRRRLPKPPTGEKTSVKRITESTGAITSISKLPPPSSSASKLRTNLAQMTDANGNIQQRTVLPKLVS
Chain of COX1 (P23219 24-599): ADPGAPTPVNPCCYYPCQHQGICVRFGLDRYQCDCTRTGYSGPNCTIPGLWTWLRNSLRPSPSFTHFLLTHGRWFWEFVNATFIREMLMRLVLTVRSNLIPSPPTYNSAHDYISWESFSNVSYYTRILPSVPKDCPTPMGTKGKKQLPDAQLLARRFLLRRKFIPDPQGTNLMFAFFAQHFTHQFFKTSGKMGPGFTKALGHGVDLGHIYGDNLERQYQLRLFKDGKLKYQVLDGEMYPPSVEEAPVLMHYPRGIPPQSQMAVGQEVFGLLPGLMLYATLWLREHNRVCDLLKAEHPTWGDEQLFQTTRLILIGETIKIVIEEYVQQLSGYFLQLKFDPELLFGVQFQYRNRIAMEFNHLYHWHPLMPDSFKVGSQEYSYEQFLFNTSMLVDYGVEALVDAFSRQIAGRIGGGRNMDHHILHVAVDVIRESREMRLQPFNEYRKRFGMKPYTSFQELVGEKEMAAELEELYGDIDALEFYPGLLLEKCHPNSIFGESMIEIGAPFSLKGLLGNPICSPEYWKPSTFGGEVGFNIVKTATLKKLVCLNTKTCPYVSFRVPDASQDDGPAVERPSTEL

In the case of `COc1cc(N2CCN(C)CC2)ccc1Nc1nccc(-c2cn(C)c3cnccc23)n1` [AZ-191], the IC50 [1] is listed as 1890 nM.
For `O=C(O[C@@H]1Cc2c(O)cc(O)cc2O[C@H]1c1cc(O)c(O)c(O)c1)c1cc(O)c(O)c(O)c1F` [Compound 40, (2S,3R)-5,7-dihydroxy-2-(3,4,5-trihydroxyphenyl)chroman-3-yl 2-fluoro-3,4,5-trihydroxybenzoate], the IC50 [2] was < 100 nM, the IC50 [3] was < 100 nM and the “axons and myelin during chronic EAE” value ([4]; Bielschowsky silver staining (neurofilaments), LFB staining (myelin)) was “preserved axons and myelin”. The “spinal cord inflammation, hematoxylin and eosin staining” value ([4]; compared to the vehicle control group) was “significant spinal cord inflammation reductions”, the “lesion severity scores, histopathology of spinal cord section” value ([4]; treated intranasally, compared to the other treatment groups, FIG. 2) was “significant (p<0.001) reductions in lesion severity scores” and the “reduction of brain IFNγ” value [4, 18] was 90%. The “reduction of brain IL-17” value [4, 18] was 79% and the “effect on disease course (EAE)” value ([4]; twice daily intranasal administration, 15 mg/kg, FIG. 1) was “reversal of the disease”.
With `O=C(O[C@@H]1Cc2c(O)cc(O)cc2O[C@H]1c1cc(O)c(O)c(O)c1)c1c(F)c(O)c(O)c(O)c1F` [Compound 51, (2S,3R)-5,7-dihydroxy-2-(3,4,5-trihydroxyphenyl)chroman-3-yl 2,6-difluoro-3,4,5-trihydroxybenzoate] the IC50 [2] was < 100 nM and the IC50 [3] was < 100 nM.
With `O=C(O[C@@H]1Cc2c(O)cc(O)cc2O[C@H]1c1ccc(O)c(O)c1)c1cc(O)c(O)c(O)c1F` [Compound 55, (2S,3R)-2-(3,4-dihydroxyphenyl)-5,7-dihydroxychroman-3-yl 2-fluoro-3,4,5-trihydroxybenzoate] the IC50 [2] was < 100 nM and the IC50 [3] was > 100 nM.
For `COc1cc(C(=O)O[C@@H]2Cc3c(O)cc(O)cc3O[C@H]2c2cc(O)c(O)c(O)c2)c(F)c(O)c1O` [Compound 68, (2S,3R)-5,7-dihydroxy-2-(3,4,5-trihydroxyphenyl)chroman-3-yl 2-fluoro-3,4-dihydroxy-5-methoxybenzoate], the IC50 [2] was < 100 nM, the IC50 [3] was < 100 nM and the IC50 [5] was 1200 nM. The IC50 [6] was 182 nM, the IC50 [7] was 380 nM and the “activity against the Potassium channel hERG” value [8] was “No activity”. For the same compound, the “activity against other ion channels” value ([9]; c=10 μM) was “No activity”, the “profile over 87 different targets” value ([9]; screened at c=10 µM, significant activity only against COX1, COX2, PDE3A) was “very clean profile” and the “substrate of transporter proteins” value [10] was “not a substrate of any of them”. For the same compound, the “inhibition of the CYP enzymes” value [11] was “no inhibition”, the cytotoxicity in bacteria [12] was “No evidence of cytotoxicity” and the mutagenicity [12] was “not mutagenic”. The “lipopolysaccharide-induced expression of TNF-alpha” value ([13]; hippocampus and plasma, ELISA, FIGS. 3-4) was “inhibit”, the “lipopolysaccharide-induced pTau” value ([13]; hippocampus, Western Blot (AT8 antibody), FIG. 5) was “inhibit” and the T1/2 ([14]; inhaled or intranasal) was 1.06 H. It also gave a T1/2 [14, 19] of 1.97 H, a T1/2 ([14]; iv, 5 mg/kg) of 1.04 H and a T1/2 ([14]; po, 30 mg/kg) of 1.27 H. For the same compound, the “time measurable in whole-brain homogenate after dosing” value [15] was 4 h, the CL/F ([16]; 30 mg/kg) was 842 mL/min/kg and the Vd/F ([16]; 30 mg/kg) was 17.1 L/kg. For the same compound, the AUC(0-inf) [16, 20] was 716 ng·h/mL, the AUC(0-t) [16, 20] was 702 ng·h/mL and the CL/F [16, 20] was 240 mL/min/kg. For the same compound, the Cmax [16, 20] was 489 ng/mL, the Vd/F [16, 20] was 41.7 L/kg and the bioavailability [16, 20] was > 100%. For the same compound, the AUC(0-inf) [16, 19] was 4990 ng·h/mL, the AUC(0-t) [16, 19] was 4950 ng·h/mL and the Cmax [16, 19] was 3140 ng/mL. For the same compound, the bioavailability [16, 19] was > 100%, the AUC(0-inf) ([16]; iv, 5 mg/kg) was 348 ng·h/mL and the AUC(0-t) ([16]; iv, 5 mg/kg) was 334 ng·h/mL. For the same compound, the Cmax ([16]; iv, 5 mg/kg) was 257 ng/mL, the Vd ([16]; iv, 5 mg/kg) was 22 L/kg and the clearance ([16]; iv, 5 mg/kg) was 240 mL/min/kg. The AUC(0-inf) ([16]; po, 30 mg/kg) was 92 ng·h/mL, the AUC(0-t) ([16]; po, 30 mg/kg) was 78 ng·h/mL and the CL/F ([16]; po, 30 mg/kg) was 100 mL/min/kg. It also gave a Cmax ([16]; po, 30 mg/kg) of 41 ng/mL, a Vd/F ([16]; po, 30 mg/kg) of 602 L/kg and a bioavailability ([16]; po, 30 mg/kg) of 4%. The concentration at 1 h [17] was 120 ng/g.
